This assay has as its target T1, Kir3.1/3.4 (Rattus norvegicus, UniProt P48548+P63251).
T1 construct: expressed in transfected cells
T1 sequence (P63251 1-501): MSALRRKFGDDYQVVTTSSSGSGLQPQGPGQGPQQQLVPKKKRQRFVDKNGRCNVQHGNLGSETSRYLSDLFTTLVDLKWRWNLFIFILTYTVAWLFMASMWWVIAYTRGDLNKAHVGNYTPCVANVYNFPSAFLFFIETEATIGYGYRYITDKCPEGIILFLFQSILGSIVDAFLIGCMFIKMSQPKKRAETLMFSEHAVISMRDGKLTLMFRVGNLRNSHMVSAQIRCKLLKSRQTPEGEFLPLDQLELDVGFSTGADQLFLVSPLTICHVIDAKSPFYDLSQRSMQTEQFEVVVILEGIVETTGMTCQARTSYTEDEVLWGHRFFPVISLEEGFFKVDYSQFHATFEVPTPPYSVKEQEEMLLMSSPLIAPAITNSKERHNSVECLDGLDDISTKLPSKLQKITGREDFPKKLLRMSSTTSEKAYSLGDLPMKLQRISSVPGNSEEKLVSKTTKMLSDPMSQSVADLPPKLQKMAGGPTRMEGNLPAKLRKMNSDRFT
T1 sequence (P48548 1-419): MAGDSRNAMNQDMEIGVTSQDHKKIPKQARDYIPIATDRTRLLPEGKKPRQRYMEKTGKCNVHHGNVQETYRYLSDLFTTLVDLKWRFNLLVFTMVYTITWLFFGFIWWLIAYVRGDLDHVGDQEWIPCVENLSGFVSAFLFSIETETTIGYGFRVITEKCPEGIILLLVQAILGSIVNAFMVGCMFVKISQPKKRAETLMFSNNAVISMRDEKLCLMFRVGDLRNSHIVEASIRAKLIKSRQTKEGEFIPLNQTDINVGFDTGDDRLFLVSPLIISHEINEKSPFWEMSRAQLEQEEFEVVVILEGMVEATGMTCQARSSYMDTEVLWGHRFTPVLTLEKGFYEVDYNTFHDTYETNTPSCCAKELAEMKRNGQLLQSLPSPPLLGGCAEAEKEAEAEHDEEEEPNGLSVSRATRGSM
The assay can be described thus: Kir3.1/3.4 Electrophysiology Method (manual whole-cell patch clamp). Format: cell-based. The settings on record: Electrophysiology Method (TABLE 1). In a few lines:
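Percent inhibition is relative to the pre-drug current, both leak-subtracted using a potassium-free bather, taken as the mean current at −140 mV. The protocol was a step to +60 mV, a ramp to −140 mV, then a return to −60 mV holding, every 10 s. Cells were rat Kir3.1/3.4-transfected HEK293 recorded by whole-cell patch clamp.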
Background: Patch clamp records ionic current or voltage across a cell membrane.
For orientation: IC50 means the concentration at which inhibition is half-maximal. High values mean lower potency, low ones higher potency. In turn, `c1ccc(-c2csc3ncnc(N4CCCC(CNC5CCC5)C4)c23)cc1` (stereo not shown) [Example 207] yielded an IC50 of 500 to 3000 nM. In turn, `OCC1CCN(CC2CCN(c3ncnc4scc(-c5ccccc5)c34)CC2)C1` (stereo not shown) [Example 95, [1-[[1-(5-phenylthieno[2,3-d]pyrimidin-4-yl)-4-piperidyl]methyl]pyrrolidin-3-yl]methanol] gave an IC50 of 500 to 3000 nM. Under `c1ccc(-c2csc3ncnc(N4C5CCC4CC(COCCN4CCCC4)C5)c23)cc1` (stereo not shown) [Example 286] stands less than 500 nM; under `CC(C)c1csc2nc(N3CCC(C(N)=O)C3)nc(N3CCC(CN(C)C4CCN(C)C4)CC3)c12` (stereo not shown) [Example 245], less than 500 nM; under `COc1cccc(-c2csc3ncnc(N4CCC(COCCN5CCCC5)CC4)c23)c1` [Example 312], less than 500 nM. Compound `CN(CC1CCN(c2ncnc3scc(-c4ccccc4)c23)CC1)C1CCOC1` (stereo not shown) [Example 203] had a 50% inhibitory concentration (IC50) of 500 to 3000 nM. Under `c1cc(-c2csc3ncnc(N4CCC(COCCN5CCCC5)CC4)c23)ccn1` [Example 311] stands 500 to 3000 nM; under `CN1CC(N(C)CC2CCN(c3ncnc4scc(-c5ccccc5)c34)CC2)CC1=O` (stereo not shown) [Example 250], 500 to 3000 nM. To `CCN1CCCC1CCN(C)CC1CCN(c2ncnc3scc(-c4ccccc4)c23)CC1` (stereo not shown) [Example 87, 2-(1-ethylpyrrolidin-2-yl)-N-methyl-N-[[1-(5-phenylthieno[2,3-d]pyrimidin-4-yl)-4-piperidyl]methyl]ethanamine] belongs less than 500 nM.

Consider `CNC(=O)C1(NCC2CCN(c3ncnc4scc(-c5ccccc5)c34)CC2)CCC1` [Example 260], for which the IC50 was less than 500 nM. To `c1ccc(-c2csc3ncnc(N4CCC(OCCN5CCCC5)C4)c23)cc1` (stereo not shown) [Example 269] belongs less than 500 nM; to `O=C1CN(c2nc(N3CCC(CNC4CCC4)CC3)c3c(-c4ccccc4)csc3n2)CCN1` [Example 125], 500 to 3000 nM; to `COc1ncccc1-c1csc2ncnc(N3C4CCC3CC(N(C)C3CCC3)C4)c12` (stereo not shown) [Example 351, N-cyclobutyl-8-[5-(2-methoxy-3-pyridyl)thieno[2,3-d]pyrimidin-4-yl]-N-methyl-8-azabicyclo[3.2.1]octan-3-amine], less than 500 nM. Under `FC(F)CNCC1CCN(c2ncnc3scc(-c4ccccc4)c23)CC1` [Example 52, 2,2-difluoro-N-[[1-(5-phenylthieno[2,3-d]pyrimidin-4-yl)-4-piperidyl]methyl]ethanamine] stands 500 to 3000 nM; under `Fc1ccc(-c2csc3ncnc(N4CCC(CNC5CC5)CC4)c23)cc1` [Example 77, N-[[1-[5-(4-fluorophenyl)thieno[2,3-d]pyrimidin-4-yl]-4-piperidyl]methyl]cyclopropanamine], 500 to 3000 nM.

As for `CN(C)CCCN(C)CC1CCN(c2ncnc3scc(-c4ccccc4)c23)CC1` [Example 72, N,N,N′-trimethyl-N′-[[1-(5-phenylthieno[2,3-d]pyrimidin-4-yl)-4-piperidyl]methyl]propane-1,3-diamine], the IC50 is less than 500 nM.

Compound `c1ccc(-c2csc3ncnc(N4CCC(CNCCC5CCCN5)CC4)c23)cc1` (stereo not shown) [Example 85, N-[[1-(5-phenylthieno[2,3-d]pyrimidin-4-yl)-4-piperidyl]methyl]-2-pyrrolidin-2-yl-ethanamine] had an IC50 of 500 to 3000 nM. Under `NC(=O)C1CN(c2nc(N3CCC(COCCN4CCCC4)CC3)nc3scc(-c4ccccc4)c23)CCO1` (stereo not shown) [Example 305] stands less than 500 nM. Under `CC(C)NC(=O)c1sc2ncnc(N3CCC(COCCN4CCCC4)CC3)c2c1C(C)C` [Example 264] stands 500 to 3000 nM; under `CN1CCC(N(C)CC2CCN(c3nc(N4CCCCC4C(N)=O)nc4scc(-c5ccccc5)c34)CC2)C1` (stereo not shown) [Example 129], 500 to 3000 nM; under `F[C@H]1CCN(CCOC2CC3CC2CN3c2ncnc3scc(-c4ccccc4)c23)C1` (stereo partly shown) [Example 291], less than 500 nM. To `CC(C)(CNCC1CCN(c2ncnc3scc(-c4ccccc4)c23)CC1)N1CCOCC1` [Example 59, 2-methyl-2-morpholino-N-[[1-(5-phenylthieno[2,3-d]pyrimidin-4-yl)-4-piperidyl]methyl]propan-1-amine] belongs less than 500 nM; to `c1ccc(-c2csc3ncnc(N4CC[C@@H](COCCN5CCCC5)C4)c23)cc1` [Example 262], less than 500 nM; to `CN1CCC(N(C)CC2CCN(c3ncnc4sc(Br)c(-c5ccccc5)c34)CC2)C1` (stereo not shown) [Example 266], less than 500 nM.

The compound `O[C@H]1CCN(CC2CCN(c3ncnc4scc(-c5ccccc5)c34)CC2)C1` [Example 190] came in with an IC50 of less than 500 nM.

The compound `COC1CCN(CC2CCN(c3ncnc4scc(-c5ccccc5)c34)CC2)C1` (stereo not shown) [Example 68, 4-[4-[(3-methoxypyrrolidin-1-yl)methyl]-1-piperidyl]-5-phenyl-thieno[2,3-d]pyrimidine] had a 50% inhibitory concentration (IC50) of less than 500 nM. In turn, `Brc1sc2nccc(N3CCC(COCCN4CCCC4)CC3)c2c1-c1ccccc1` [Example 143] showed an IC50 of less than 500 nM. To `COCC1CCN(c2nc(NCCN3CCCC3)nc3scc(-c4ccccc4)c23)CC1` [Example 175] belongs less than 500 nM.

In turn, `c1ccc(-c2csc3nc(C4CC4)nc(N4C5CCC4CC(NC4CCC4)C5)c23)cc1` (stereo not shown) [Example 321, N-cyclobutyl-8-(2-cyclopropyl-5-phenyl-thieno[2,3-d]pyrimidin-4-yl)-8-azabicyclo[3.2.1]octan-3-amine] returned a concentration for half-maximal inhibition (IC50) of less than 500 nM.

Compound `O=C(NCCN1CCCC1)C1CCN(c2ncnc3scc(-c4ccccc4)c23)C1` (stereo not shown) [Example 270] showed a half-maximal inhibitory concentration (IC50) of 500 to 3000 nM. Under `CN1CCCC1CCNCC1CCN(c2ncc3c(-c4ccccc4)csc3n2)CC1` (stereo not shown) [Example 146] stands less than 500 nM; under `OC1CCN(CC2CCN(c3ncnc4scc(C5CCCCC5)c34)CC2)C1` (stereo not shown) [Example 200], less than 500 nM. Under `CN1CCCC1CCOCC1CCN(c2nc(N3CCC(C(N)=O)C3)nc3scc(-c4ccccc4)c23)CC1` (stereo not shown) [Example 255] stands less than 500 nM. Under `CN1CCC(N(C)CC2CCN(c3nc(NCCN4CCCC4)nc4scc(-c5ccccc5)c34)CC2)C1` (stereo not shown) [Example 110] stands less than 500 nM.

As for `OCC1(NCC2CCN(c3ncnc4scc(-c5ccccc5)c34)CC2)CCCC1` [Example 54, [1-[[1-(5-phenylthieno[2,3-d]pyrimidin-4-yl)-4-piperidyl]methylamino]cyclopentyl]methanol], the IC50 is less than 500 nM.

For `CCc1c(C)sc2ncnc(N3CCC(COCCN4CCOCC4)CC3)c12` [Example 23, 4-[2-[[1-(5-ethyl-6-methyl-thieno[2,3-d]pyrimidin-4-yl)-4-piperidyl]methoxy]ethyl]morpholine], the IC50 is less than 500 nM. Under `CN1CCC(CCNCC2CCN(c3ncnc4scc(-c5ccccc5)c34)CC2)C1` (stereo not shown) [Example 104] stands less than 500 nM; under `FC(F)(F)c1nc(N2CCOCC2)c2c(-c3ccccc3)csc2n1` [Example 336], 500 to 3000 nM. To `CN1CCCC1CCNCC1CN(c2ncnc3scc(-c4ccccc4)c23)C1` (stereo not shown) [Example 219] belongs less than 500 nM. Under `CC1CCN(CC2CCN(c3ncnc4scc(-c5ccccc5)c34)CC2)C1` (stereo not shown) [Example 50, 4-[4-[(3-methylpyrrolidin-1-yl)methyl]-1-piperidyl]-5-phenyl-thieno[2,3-d]pyrimidine] stands 500 to 3000 nM.

The values above are taken from patent US9290511B2, “Thieno-pyrimidines, useful as potassium channel inhibitors” (XENTION LIMITED, priority 2011, dated 2016).
